Data on five compounds can be found in patent US6706748B2 (priority 2000, dated 2004).

For orientation: melting point means the temperature, or range, at which the solid turns liquid. The compound `O=C(CC(=O)c1snc(Cl)c1Cl)c1ccc(O)cc1` [Ic-148, 1-(3,4-dichloro-5-isothiazolyl)-3-(4-hydroxyphenyl)-1,3-propanedione] yielded a melting point of 224 to 227 °C.
As for `COC(=O)C(C#N)C(=O)c1snc(Cl)c1Cl` (centres unmarked) [Ie-1, methyl 2-cyano-3-(3,4-dichloro-5-isothiazolyl)-3-oxopropanoate], the figure is 119 to 122 °C.
In the case of `CCOCOc1ccc(C(=O)CC(=O)c2snc(Cl)c2Cl)cc1` [Ic-145, 1-(3,4-dichloro-5-isothiazolyl)-3-(4-ethoxymethoxyphenyl)-1,3-propanedione], the melting point is 174 °C.
As to `COc1ccc(C(=O)CC(=O)c2snc(Cl)c2Cl)cc1`, the melting point lay in the range of 138 to 139 °C.
The result for `COc1ccc(S(=O)(=O)N(C(=O)c2snc(Cl)c2Cl)c2ccc(Cl)cc2)cc1` [Ia-68, N-(3,4-dichloro-5-isothiazolecarbonyl)-N-(4-chlorophenyl)-4-methoxybenzenesulfonamide] reads 154 to 158 °C.
